Residues, ends and D or L forms follow the SMILES beside them.
melting point [°C] | SMILES
174 to 176 | O=CNNc1ccc(NC(=S)N2CCCCC2)cc1
204 | OC(CN1CCNC1=S)c1ccncc1 (stereo unspecified)
104 to 106 | CCOC(=O)C1CC12CCN(c1ccc(N3CC(CNC(C)=O)OC3=O)cc1F)CC2 (stereo unspecified)
126 to 128 | COc1ccc(N2C(=O)C(=C3CCCN3C)c3ccccc32)cc1Cl
206 to 209 | COC(=O)C=Cc1ccc2c(c1)Cc1cc(C=CC(=O)OC)ccc1-2
76 to 77 | COc1cnccc1-c1csc(Cc2ccccc2)n1
102 to 105 | COC(=O)c1cc(S(C)(=O)=O)ccc1OC1CCOC1=O (stereo unspecified)
129 | COc1c(C)c(=O)oc2cc(-c3ccc(C(C)C)cc3)ccc12
130 to 131 | COc1c(C)c2c(c(N)c1C/C=C(\C)CCC(=O)O)C(=O)OC2
240 to 244 | NC(=O)[C@@H]1[C@H](Nc2ccnc3[nH]c(-c4cccc(CN5CCOCC5)c4)nc23)[C@H]2C=C[C@@H]1C2
196 to 197 | CCOC(=O)CCNC(=O)c1oc2cc(-c3ccc(Cn4c(C)nc5ccccc54)cc3)ccc2c1C
192 to 193 | COc1ccc(CC(N)=O)cc1C(=O)NCc1ccc(C(F)(F)F)cc1
118 to 120 | CC(C)(C)OC(=O)NC(Cc1ccccc1)CC(O)C(Cc1ccccc1)NC(=O)OCc1cncs1 (stereo unspecified)
56 to 58 | Cc1ccc(C(Cl)=NOS(=O)(=O)CCCCl)cc1
115 to 125 | COc1ccc(S(=O)(=O)N2C(=O)[C@@](c3ccccc3OC)(N3C[C@H](OC(N)=O)C[C@H]3C(=O)N(C)C)c3cc(Cl)ccc32)c(OC)c1
62.5 to 64 | N#Cc1ccc(-c2ccc(OCCCCBr)cc2)cc1
218 to 220 | CCCCCCCCCCCCCCCCN1CCN(c2ccc(CCC(=O)O)cc2)CC1
142 to 144 | CC(=O)Cc1nc2cc(C)ccc2c(=O)o1
108 to 109 | COc1ccc(Cn2cc3nc(Cl)nc(Cl)c3n2)cc1
65 to 66.5 | C#CC(CCCCC)OC(c1ccccc1)(c1ccccc1)c1ccccc1 (stereo unspecified)
200 | COc1ccc2ccc(N3C(=O)c4ccccc4C3CC(CCC(C)C)=NO)nc2n1 (stereo unspecified)
226 to 227 | CCS(=O)(=O)Nc1n[nH]c2nc(Oc3ccc(F)cc3F)ncc12
127 to 129 | O=S(=O)(NCC1CCN(C[C@H]2COc3ccc(Cl)cc3O2)CC1)c1ccc(F)cc1

melting point [°C] | SMILES
166 to 168 | COc1cc(-c2cn(Cc3ccccc3)c(=O)c3ccccc23)cc(OC)c1OC
75 to 77 | O=C(CCCCCCCCc1ccccc1)NO
187 to 188 | Cc1ccc(CSc2nc3cc4c(cc3[nH]2)C(C)(C)CCC4(C)C)nc1
211 to 212 | Cc1cccc(-c2nc3cccnn3c2-c2ccnc(NC(=O)c3ccc(Cl)cc3)c2)c1
190 to 192 | CCOc1ncccc1OCC1(c2onc(-c3ccc(O)cc3)c2-c2ccccc2)CC1
70 to 71 | CC(C)c1cnc(NC(=O)Cc2csc(NC(=O)CN(C)C)n2)s1
154 to 156 | CC(NC(=O)C(N)Cc1ccccc1)C(=O)NCC(=O)NC(Cc1ccccc1)C(=O)NCC(=O)NC(CCCNC(=N)N)C(=O)O (stereo unspecified) (H-FAGFGR-OH; configuration not given here)
> 250 | NC(=O)c1cc2c(Oc3ccc(N)cc3)cncc2s1
133 to 135 | CCOC(=O)/C(=N\O[C@H]1CC[C@H](C)CC1)c1csc(N)n1
59 to 60 | CCCCCCCCCCCCCCc1ccc(CC)c(O)c1
206 to 210 | O=C1COC2(CCN(CC(=O)c3ccc(F)cc3)CC2)CN1
202 | Cc1cccc(SCc2ccc3nc(NC4CCN(C)CC4)n(Cc4nc(C)ccc4O)c3c2)c1
218 to 220 | CC(OCc1cc2nc(Cl)ccc2n1S(=O)(=O)c1ccc2nc(N)sc2c1)C(=O)O (stereo unspecified)
186 to 187 | O=C(O)[C@H]1C[C@H](NC(=S)Nc2ccccc2)c2c(Cl)cc(Cl)cc2N1 (relative stereo)
67 to 70 | COc1ccccc1NC(=O)c1ccc(COC2CCCCO2)cc1 (stereo unspecified)
73 | CCCC1(C)CC(C)c2cc(C(C)=O)c(O)c(C)c2O1 (stereo unspecified)
166 to 167 | O=c1c2cnc(-c3ccccc3)nc2sn1Cc1ccccc1
162 to 165 | COc1ccc(-c2nc(C)c(C(C)=O)[nH]2)cc1
91 to 95 | NC(=O)[C@@H]1CCCN1C(=O)CNP(=O)(Cc1ccccc1)Cc1ccccc1
100 to 102 | CCOCC(=O)Nc1ncc(Br)s1
110 | COc1ccc(C2(Cn3ccn(Cc4ccccc4)c3=O)CC2)cc1OC
196 to 199 | Nc1ccc2c(c1)c(CC(=O)O)cc(=O)n2Cc1ccc(Cl)cc1
150 to 152 | ONCc1ccc2c(c1)Cc1ccccc1-2

melting point [°C] | SMILES
86 | CC(C)(C)OC(=O)Cn1cc(Cl)c(-c2cc(Cl)cc(Cl)c2)n1
125 | O=C(CCCCCS(=O)c1ccc(Cl)cc1)NO (stereo unspecified)
178 to 179 | COc1cc(NC(=O)CN2CCOCC2)c(Cl)cc1Cn1nc(-c2ccc(C(F)(F)F)cc2)oc1=O
255 to 256 | CCOC(=O)c1cn2c3c(c(F)c(F)cc3c1=O)OCC21CCC1
143 to 144 | Cc1cc(N2CCN(c3ccc(C(F)(F)F)cn3)CC2)cc(C)c1O
158 | CCCCCNc1ncnc2c(C)n[nH]c12
248 to 251 | Nc1cccc2c1NC(=O)C2
178 to 180 | O=C(O)c1cccc2c1CCc1cc(C(F)(F)F)ccc1S2
152 to 153 | O=C(O)C(=O)c1ccc(OCCOc2ccc3ccccc3c2)cc1Cl
106 to 110 | Clc1ccc(C(=Cc2ccccc2Cl)Cn2cncn2)cc1
67 to 68 | CN(C)C(=S)SC(C[N+](=O)[O-])c1ccco1 (stereo unspecified)
168 to 172 | N#Cc1ccc(-c2cn(-c3ccc(C#N)cc3)c(SCc3ccccc3)n2)cc1
165 to 166 | O=C(O)C(=C1SCCCS1)c1cccc(C(F)(F)F)c1
138 to 142 | CCOCC(=O)Nc1c(NCCNC(=O)OC(C)(C)C)c(C)c(C)n2nnnc12
183 to 184 | O=C1c2c(-c3ccccc3)cc(CCl)nc2OCCN1Cc1cc(C(F)(F)F)cc(C(F)(F)F)c1
82 to 82.8 | Cc1cc(C(=O)N2CCCC(C)C2)ccc1[N+](=O)[O-] (stereo unspecified)
123 | COc1ccc(Cn2cnc3c(-c4ccco4)nc(C(C)C)nc32)cc1
201 to 203 | Cc1ccc(C2c3c(C)c(N4Cc5cc(Cl)c(Cl)cc5C4)c(C)c(C)c3OC2(C)C)cc1 (stereo unspecified)
> 280 | O=Cc1c[nH]c2ccc(-c3ccc4[nH]cnc4c3)cc12
206 to 208 | O=C(Nc1n[nH]c2nc(Oc3ccc(F)cc3F)ncc12)C1CCCC1
135 | CCS(=O)(=O)Nc1cc(-c2nsc(C(F)(F)F)c2Cl)c(Cl)cc1Cl

SMILES | melting point [°C]
CC1(C)N=C(c2ccccc2Cl)c2cc([N+](=O)[O-])cc(Cl)c2NC1=O | 121
Cc1ccc(OC(=O)CCC(=O)OOC(C)(C)C)cc1 | 72 to 77
Cc1ccccc1C(=O)NC(=O)NC1CN2CCC1CC2 (stereo unspecified) | 216 to 217
CN1CCC2(CC1)OCc1ccccc12 | 76 to 77

Reference: a melting point compilation (Tetko et al.; mined from patent text by program, amines drawn as free bases though some values may be those of a salt)
